Values of other authors as cited in patent US10532971B2, “4-hydroxybutyric acid analogs” (Concert Pharmaceuticals, Inc., priority 2009, dated 2020).
Where a name gives a salt, the structure may show the parent alone.

Legend:
[1] = in humans
[2] = clinical trials; dose-dependent adverse effects

Row | Structure (SMILES) | half life [1] [min] | rates of headache, nausea, and dizziness [2]
1 | O=C(O)CCCO [4-hydroxybutyric acid, 4-Hydroxybutyric acid] | 30 to 60 | 
2 | O=C(O)CCCO [sodium oxybate, sodium salt of 4-hydroxybutyric acid] |  | 17-22%
